Assays:
[1] = tested on: colorectal (HCT116), breast (MCF-7) and non-small cell lung (H1299, A549, H358 and H460) cell line models; assay: Colony forming assay; type: cell-based; settings: increasing concentrations of FUdR between 0.5 and 2.5 μmol/L; all cell lines evaluated
Procedure: Colony forming assay showing the ability of colon (SW620, HCT116), non-small cell lung (A549, H460, H1299 and H358) and breast (MCF7) cancer cells to survive and proliferate following transient 24 hour exposure to test compounds, FUdR and combinations are determined. Specifically, cells are seeded at densities between 50 and 100 cells/well in 24-well plates. […] After 24 hours, drug is removed, cells are rinsed and allowed to outgrow for 10-14 days. At the conclusion of the outgrowth, cells are fixed in 60% ice cold methanol and stained with 0.1% crystal violet, scanned and counted. Data is presented as percentage of untreated controls (mean±SD). Fraction affected and combination indexes are calculated according to the method of Chou and Talalay where <1 is indicative of a synergistic drug interaction.
Colony forming assays are performed to evaluate the effectiveness of test compounds alone and in combination with the fluoropyrimidine thymidylate synthase (TS) inhibitor fluorodeoxyuridine (FUdR) at reducing cancer cell viability in colorectal (HCT116), breast (MCF-7) and non-small cell lung (H1299, A549, H358 and H460) cell line models.

[2] = tested on: colorectal (HCT116 and SW620) cell line models; assay: MTS growth inhibition assay; type: cell-based; settings: increasing concentrations of 5-FU between 0 and 100 μmol/L; both colorectal cancer cell lines (HCT116, SW620)
Procedure: The Cell Titer AQueous MTS assay (Promega) is carried out according to the manufacturers guidelines. […] The combination effect is determined by the combination index (CI) method utilizing Calcusyn software (Biosoft, Ferguson, Mo.). […] CI values <1, synergism; 1-1.2, additive and >1.2, antagonism.
Test compounds are evaluated for their antitumor activity in colorectal cancer cells using the MTS growth inhibition assay. HCT116 and SW620 cells are exposed to increasing concentrations of each agent for 72 hours and growth inhibition is directly compared to vehicle-treated controls. The NSCLC cell lines A549 and H1299 are exposed to increasing concentrations of each agent for 72 hours and growth inhibition is directly compared to vehicle-treated controls.
Simultaneous treatment with increasing concentrations of 5-FU and a test compound at fixed concentrations of 25 μmol/L is determined.

Structure (SMILES) | colonies formed [1] | growth inhibition [2]
O=c1[nH]c(=O)n([C@H]2C[C@H](O)[C@@H](CO)O2)cc1F [FUdR, fluorodeoxyuridine] | dose-dependent decreases in colonies formed | –
O=c1[nH]cc(F)c(=O)[nH]1 [5-FU, 5-fluorouracil] | – | dose-dependent increases in growth inhibition

From patent US11479531B2, “Deoxyuridine triphosphatase inhibitors” (University of Southern California, priority 2015, dated 2022)
